Experimental data as given in ChEMBL document CHEMBL3243942, “Nondepressant beta-adrenergic blocking agents. 1. Substituted 3-amino-1-(5,6,7,8-tetrahydro-1-naphthoxy)-2-propanols” (J Med Chem, 1978).
In brackets after ≈: the same amount, converted by molar mass. Activity calls are given as the source filed them. The calls are words filed in the database; no cut-off is given here.

Experiments:
[1] = target: Adrenergic receptor beta (Rattus norvegicus, UniProt P18090+P10608+P26255); test: Inhibition of beta-adrenergic receptor in rat portal vein
[2] = Myocardial depressant activity in guinea pig atrial muscle assessed as maximal non-depressant dose by measuring contractility; type: ADME, tissue-based, Cavia porcellus, Muscle tissue
[3] = Inhibition of beta-adrenergic receptor in isoproterenol-stimulated guinea pig atrial muscle; type: tissue-based, Cavia porcellus, Cardiac atrium
[4] = Myocardial depressant activity in guinea pig atrial muscle assessed as decrease in contractility at 1.0 mg/ml; type: ADME, tissue-based, Cavia porcellus, Muscle tissue
[5] = Myocardial depressant activity in guinea pig atrial muscle assessed as decrease in contractility at 0.31 x 10^-3 to 0.31 mg/ml; type: ADME, tissue-based, Cavia porcellus, Muscle tissue
[6] = Retention time of the compound; type: physicochemical
[7] = Myocardial depressant activity in cat papillary muscle assessed as decrease in contractile force at >0.31 mg/ml; type: ADME, tissue-based, Felis catus, Muscle tissue
[8] = species: Felis catus; test: Inhibition of beta-adrenergic receptor in cat papillary muscle; type: tissue-based

Compound | Activity [2] [µg/mL] | IC50 [3] | other results
CCCCNCC(O)COc1cccc2c1C[C@H](O)[C@H](O)C2 (stereo not given in full) |  |  | IC50 [1]: 0.44 µg/mL (≈ 1.42 µM)
Cl.NCC(O)COc1cccc2c1C[C@H](O)[C@H](O)C2 (stereo not given in full) | > 1000 | 3.8 µg/mL | 
CC(C)NCC(O)COc1cccc2c1C[C@H](O)[C@@H](O)C2 (relative stereo) | > 1000 | 0.05 µg/mL (≈ 0.169 µM) | 
Cl.NCC(O)COc1ccc(O)c2c1CCCC2 (stereo not given) | 31 | 0.15 µg/mL | 
CC(C)(C)NCC(O)COc1cccc2c1CC=CC2 (stereo not given) | 0.3 |  | IC50 [1]: 0.0013 µg/mL (≈ 0.00472 µM)
CC(C)(C)CC(C)(C)NCC(O)COc1cccc2c1C[C@H](O)[C@H](O)C2 (stereo not given in full) | 1 |  | IC50 [1]: 0.78 µg/mL (≈ 2.13 µM)
CC(C)NCC(O)COc1cccc2c1CC(O)CC2 (stereo not given) | 3.1 | 0.005 µg/mL (≈ 0.0179 µM) | 
CCN(CC(O)COc1cccc2c1C[C@H](O)[C@H](O)C2)C(C)(C)C (stereo not given in full) | > 1000 |  | 
CC(O)(CNC(C)(C)C)COc1cccc2c1C[C@H](O)[C@H](O)C2 (stereo not given in full) | 31 | 16 µg/mL (≈ 49.5 µM) | 
CC(C)(C)NCC(O)COc1cccc2c1CC[C@@H](O)[C@@H]2O (relative stereo) | 310 | 0.02 µg/mL (≈ 0.0646 µM) | 
OC(COc1cccc2c1C[C@H](O)[C@H](O)C2)CN1CCN(c2ccccn2)CC1 (stereo not given in full) | > 310 | Not Active | 
CCN(CC)CC(O)COc1cccc2c1C[C@H](O)[C@H](O)C2 (stereo not given in full) | > 1000 | 31 µg/mL (≈ 100 µM) | 
CC(C)(C)NCC(O)COc1cccc2c1CC(O)CC2 (stereo not given) | 1 | 0.0025 µg/mL (≈ 0.00852 µM) | 
CC(C)(C)NCC(O)COc1cccc2c1CCC(O)C2 (stereo not given) | 10 | 0.001 µg/mL (≈ 0.00341 µM) | 
CC(C)NCC(O)COc1ccc(O)c2c1CCCC2 (stereo not given) | 10 | 0.004 µg/mL (≈ 0.0143 µM) | 
CC(C)(C)NCC(O)COc1ccc2c(c1)C[C@@H](O)[C@H](O)C2 (relative stereo) | 100 | 6 µg/mL (≈ 19.4 µM) | 
CC(C)NCC(O)COc1cccc2c1C[C@@H](O)[C@@H](O)C2 (relative stereo) | > 1000 | 0.1 µg/mL (≈ 0.339 µM) | 
CC(C)(C)NCC(O)COc1ccc2c(c1)C[C@@H](O)[C@@H](O)C2 (relative stereo) | > 1000 | 10 µg/mL (≈ 32.3 µM) | 
CC(C)(C)NCC(O)COc1ccc(O)c2c1C[C@@H](O)[C@@H](O)C2.Cl (relative stereo) |  | 0.086 µg/mL | Activity [4]: Non-toxic; inhibition (INH) [5]: 10%
CC(C)(C)NCC(O)COc1cc(O)c(O)c2c1CCCC2 (stereo not given) | 10 | 0.1 µg/mL (≈ 0.323 µM) | 
CC(C)NCC(O)COc1cccc2c1CCCC2 (stereo not given) | 1 | 0.01 µg/mL (≈ 0.038 µM) | 
CC(C)NCC(O)COc1cccc2c1CCC(=O)C2 (stereo not given) | 3.1 | 0.006 µg/mL (≈ 0.0216 µM) | 
COc1ccccc1N1CCN(CC(O)COc2cccc3c2C[C@H](O)[C@H](O)C3)CC1 (stereo not given in full) |  |  | IC50 [1]: 0.46 µg/mL (≈ 1.07 µM)
CC(C)(C)[N+](C)(C)CC(O)COc1cccc2c1C[C@H](O)[C@H](O)C2.[I-] (stereo not given in full) | 1000 | 0.63 µg/mL | 
Oc1cccc2c1CCC=C2 |  |  | Retention_time [6]: 37 min
CO[C@@H]1c2c(cccc2OCC(O)CNC(C)C)CC[C@@H]1O.O=C(O)C(=O)O (relative stereo) | 10 | 0.8 µg/mL | 
CC(C)(C)NCC(O)COc1cccc2c1C[C@@H]1OCO[C@@H]1C2 (relative stereo) | 3.1 | 0.04 µg/mL (≈ 0.124 µM) | 

Compound | Activity [2] [µg/mL] | IC50 [3] | other results
CC(C)(Cc1ccccc1)NCC(O)COc1cccc2c1C[C@H](O)[C@H](O)C2 (stereo not given in full) | 3.1 |  | IC50 [1]: 0.045 µg/mL (≈ 0.117 µM)
CC(C)(C)NCC(O)COc1ccc(I)c2c1C[C@H](O)[C@H](O)C2 (relative stereo) |  |  | Activity [7]: Toxic; inhibition [8]: Active
COc1ccc(CCNCC(O)COc2cc(O)c(O)c3c2CCCC3)cc1OC.Cl (stereo not given) | 3.1 | 5.9 µg/mL | 
CC(C)NCC(O)COc1cccc2ccccc12 (stereo not given) [PROPRANOLOL] | 0.31 |  | 
Oc1cccc2c1C=CCC2 |  |  | Retention_time [6]: 35 min
CC(C)N(Cc1ccccc1)CC(O)COc1cccc2c1C[C@H](O)[C@H](O)C2 (stereo not given in full) | 310 | 80 µg/mL (≈ 208 µM) | 
CO[C@@H]1c2cccc(OCC(O)CNC(C)C)c2CC[C@H]1O.O=C(O)C(=O)O (relative stereo) | 31 | 0.05 µg/mL | 
CC(C)(C)NCC(O)COc1cccc2c1CCCC2=O (stereo not given) [BUNOLOL] | 1 | 0.006 µg/mL (≈ 0.0206 µM) | 
OC(CNCc1ccccc1)COc1cccc2c1C[C@H](O)[C@H](O)C2 (stereo not given in full) | 100 | 1 µg/mL (≈ 2.91 µM) | 
CN(CC(O)COc1cccc2c1C[C@H](O)[C@H](O)C2)C(C)(C)C (stereo not given in full) | > 1000 | Not Active | 
CCOc1ccccc1OCCNCC(O)COc1cccc2c1C[C@H](O)[C@H](O)C2 (stereo not given in full) | 31 | 0.31 µg/mL (≈ 0.743 µM) | 
COc1ccc(CCNCC(O)COc2cccc3c2C[C@H](O)[C@H](O)C3)cc1OC (stereo not given in full) | > 1000 | 0.07 µg/mL (≈ 0.168 µM) | 
CC(C)(C)NCC(O)COc1ccc(O)c2c1CCCC2 (stereo not given) | 10 | 0.01 µg/mL (≈ 0.0341 µM) | 
CC(C)(C)N(CCNCC(O)COc1cccc2c1C[C@H](O)[C@H](O)C2)Cc1ccccc1 (stereo not given in full) | 31 |  | IC50 [1]: > 8 µg/mL
CC(C)(C)NCC(O)COc1cccc2c1C[C@@H](O)[C@@H](O)C2 (relative stereo) | > 1000 | 0.03 µg/mL (≈ 0.097 µM) | 
CC(C)NCC(O)COc1cccc2c1CC1OC1C2 (stereo not given) | 31 | 0.012 µg/mL (≈ 0.0433 µM) | 
CC(C)NCC(O)COc1cccc2c1CCC(O)C2.O=C(O)C(=O)O (stereo not given) | 31 | 0.002 µg/mL | 
CC(C)(C)NCC(O)COc1ccc(O)c2c1C[C@@H]1OCO[C@@H]1C2 (stereo not given in full) | 100 | 0.3 µg/mL (≈ 0.889 µM) | 
CC(C)NCC(O)COc1cccc2c1CC=CC2 (stereo not given) | 1 | 0.001 µg/mL (≈ 0.00383 µM) | 
Oc1cccc2c1CCCC2 |  |  | Retention_time [6]: 37.5 min
OC(CNCCc1ccccc1)COc1cccc2c1C[C@H](O)[C@H](O)C2 (stereo not given in full) | 100 | 0.5 µg/mL (≈ 1.4 µM) | 
CC(C)NCC(O)COc1cc(O)c(O)c2c1CCCC2 (stereo not given) | 100 | 0.11 µg/mL (≈ 0.372 µM) | 
CC(C)(C)NCC(O)COc1cccc2c1C[C@H](O)[C@@H](O)C2 (relative stereo) | > 1000 | 0.015 µg/mL (≈ 0.0485 µM) | 
CO[C@H]1Cc2cccc(OCC(O)CNC(C)(C)C)c2C[C@H]1OC.Cl (relative stereo) | 100 |  | IC50 [1]: 0.051 µg/mL
C=CCc1ccc(OCCNCC(O)COc2cccc3c2C[C@H](O)[C@H](O)C3)c(OC)c1 (stereo not given in full) | 3.1 |  | IC50 [1]: 1.5 µg/mL (≈ 3.38 µM)
COc1ccc(CCNCC(O)COc2ccc(O)c3c2CCCC3)cc1OC (stereo not given) | 3.1 | 0.024 µg/mL (≈ 0.0598 µM) | 
